Measurements published in ChEMBL document CHEMBL1201862, “PubChem BioAssay data set” (2004).
The source made the active and inactive calls.

Assays:
Beta-galactosidase = Beta-galactosidase (Escherichia coli, UniProt Q8VNN2); assay: PubChem AID 485352; type: functional
[1] = target: T1, Calpain-2 catalytic subunit (Sus scrofa, UniProt P43367); assay: m-calpain protease blockers, concentration series – biochemical, fluorogenic peptide substrate, dose response (AID 1420); type: functional
T1 sequence (P43367 whole entry): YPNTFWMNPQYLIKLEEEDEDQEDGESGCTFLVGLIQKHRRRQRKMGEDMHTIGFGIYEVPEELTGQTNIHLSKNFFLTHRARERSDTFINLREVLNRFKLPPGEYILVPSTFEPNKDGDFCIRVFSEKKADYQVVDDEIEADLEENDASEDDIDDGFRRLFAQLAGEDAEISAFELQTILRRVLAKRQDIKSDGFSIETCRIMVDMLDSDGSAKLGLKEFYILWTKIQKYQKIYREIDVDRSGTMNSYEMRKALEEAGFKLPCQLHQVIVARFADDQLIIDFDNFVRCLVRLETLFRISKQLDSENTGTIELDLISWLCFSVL

[2] = target: T2, Type-1 angiotensin II receptor (Homo sapiens, UniProt P30556); assay: antagonism of angiotensin II type 1 receptor – cell-based, uHTS hits, selectivity assay for APJ receptor antagonist project, dose response (AID 463214); type: functional;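 further: antagonist potency against angiotensin II stimulated AT1 response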
T2 sequence (P30556 whole entry): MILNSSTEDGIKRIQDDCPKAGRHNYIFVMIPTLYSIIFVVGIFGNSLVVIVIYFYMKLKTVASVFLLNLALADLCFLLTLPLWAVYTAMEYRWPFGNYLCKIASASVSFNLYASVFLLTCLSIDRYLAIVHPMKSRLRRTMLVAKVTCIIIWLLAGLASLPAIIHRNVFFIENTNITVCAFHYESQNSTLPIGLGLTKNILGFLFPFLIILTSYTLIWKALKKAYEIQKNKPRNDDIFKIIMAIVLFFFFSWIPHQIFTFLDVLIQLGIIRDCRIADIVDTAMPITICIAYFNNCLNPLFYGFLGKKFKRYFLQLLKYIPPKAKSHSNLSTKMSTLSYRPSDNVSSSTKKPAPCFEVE

[3] = target: Intestinal-type alkaline phosphatase (Homo sapiens, UniProt P09923); assay: inhibition of human intestinal alkaline phosphatase – biochemical, dose response (AID 488876); type: functional
[4] = target: T3, Alkaline phosphatase, tissue-nonspecific isozyme (Homo sapiens, UniProt P05186); assay: TNAP enzyme inhibition by screening hits, dose response, selectivity assay for mouse IAP inhibitor project, biochemical, human TNAP, uHTS hits (AID 488906); type: functional
T3 sequence (P05186 whole entry): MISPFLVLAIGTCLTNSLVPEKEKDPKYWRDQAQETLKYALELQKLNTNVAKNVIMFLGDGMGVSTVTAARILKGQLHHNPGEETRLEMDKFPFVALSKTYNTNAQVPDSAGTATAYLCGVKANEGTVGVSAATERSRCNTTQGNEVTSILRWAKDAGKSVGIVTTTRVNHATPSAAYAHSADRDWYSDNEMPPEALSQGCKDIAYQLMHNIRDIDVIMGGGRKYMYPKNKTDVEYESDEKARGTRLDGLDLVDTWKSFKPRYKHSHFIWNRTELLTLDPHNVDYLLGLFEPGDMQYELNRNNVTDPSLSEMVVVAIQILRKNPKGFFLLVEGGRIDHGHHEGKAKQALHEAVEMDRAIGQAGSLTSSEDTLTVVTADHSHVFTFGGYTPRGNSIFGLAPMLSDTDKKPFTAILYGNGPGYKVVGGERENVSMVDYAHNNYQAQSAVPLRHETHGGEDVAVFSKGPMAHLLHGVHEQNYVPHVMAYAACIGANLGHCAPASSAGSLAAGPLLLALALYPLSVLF

[5] = target: Induced myeloid leukemia cell differentiation protein Mcl-1 (Homo sapiens, UniProt Q07820); type: functional
[6] = target: Intestinal-type alkaline phosphatase (Mus musculus, UniProt P24822); assay: PubChem AID 488785; type: functional
Large T antigen = Large T antigen (Simian virus 40, UniProt P03070); type: functional, Betapolyomavirus macacae;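 further: Confirmatory-stage PubChem screen for compounds that inhibit SV40 T antigen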
[7] = target: Hepatocyte nuclear factor 4-alpha (Homo sapiens, UniProt P41235); type: functional, cell-based;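 further: biochemical luminescence-based dose-response counterscreen measuring inhibition of HNF4 dimerization, run alongside a screen for blockers of ABHD5–perilipin-5 interaction; split luciferase complementation of HNF4 fusion proteins in cell lysate measuring dimerization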
[8] = target: ATP-dependent molecular chaperone HSP82 (Candida albicans (strain WO-1) (Yeast), UniProt C4YTQ8); assay: steroid-induced GRE reporter decrease in yeast – S. cerevisiae, luminescence, Hsp90 inhibitor project, dose response (AID 2400); type: functional, cell-based;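 further: beta-galactosidase luminescence from glucocorticoid response element reporter as proxy for Hsp90 function; inhibitor potency where signal loss means Hsp90 inhibition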
[9] = fluconazole-exposed Candida albicans growth modulators – fluorescence, retest, confirmation (AID 2467); type: functional, cell-based
Melanocortin receptor 4 = Melanocortin receptor 4 (Homo sapiens, UniProt P32245); type: functional, cell-based;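 further: Cell-based assay with luminescence read-out, confirmatory dose-response testing for agonist activity of biased ligands at MC4R; human U2OS cells with tagged receptor and beta-arrestin; potency of agonists that increase receptor coupling to beta-arrestin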
[10] = NIH-3T3 fibroblast cytotoxicity, dose response, cytotoxicity control, cell-based, fluorescence, Alamar Blue, secondary assay (AID 2327); type: functional;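 further: NIH-3T3 mouse fibroblasts cultured with fluconazole at 8 µg/mL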
[11] = target: Heat shock protein HSP 90-alpha (Homo sapiens, UniProt P07900); type: functional, organism-based
Genome polyprotein = Genome polyprotein (dengue virus type 2, UniProt P29990); assay: flavivirus cap methylation enzyme inhibition – biochemical, confirmation dose response, primary screen (AID 588689); type: functional
[12] = target: T4, Serine/threonine-protein phosphatase (Candida dubliniensis (strain CD36 / CBS 7987 / NCPF 3949 / NRRLY-17841) (Yeast), UniProt B9W6M3); assay: blockers of CaCl2-induced CDRE-lacZ signaling – S. cerevisiae, luminescence, secondary, dose response (AID 2388); type: functional, cell-based;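 further: yeast reporter cells carrying a calcineurin-responsive lacZ construct stimulated with calcium chloride; luminescent beta-galactosidase reporter signal in whole cells rather than isolated phosphatase activity; potency for inhibition where a drop in reporter signal means calcineurin blockade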
T4 sequence (B9W6M3 whole entry): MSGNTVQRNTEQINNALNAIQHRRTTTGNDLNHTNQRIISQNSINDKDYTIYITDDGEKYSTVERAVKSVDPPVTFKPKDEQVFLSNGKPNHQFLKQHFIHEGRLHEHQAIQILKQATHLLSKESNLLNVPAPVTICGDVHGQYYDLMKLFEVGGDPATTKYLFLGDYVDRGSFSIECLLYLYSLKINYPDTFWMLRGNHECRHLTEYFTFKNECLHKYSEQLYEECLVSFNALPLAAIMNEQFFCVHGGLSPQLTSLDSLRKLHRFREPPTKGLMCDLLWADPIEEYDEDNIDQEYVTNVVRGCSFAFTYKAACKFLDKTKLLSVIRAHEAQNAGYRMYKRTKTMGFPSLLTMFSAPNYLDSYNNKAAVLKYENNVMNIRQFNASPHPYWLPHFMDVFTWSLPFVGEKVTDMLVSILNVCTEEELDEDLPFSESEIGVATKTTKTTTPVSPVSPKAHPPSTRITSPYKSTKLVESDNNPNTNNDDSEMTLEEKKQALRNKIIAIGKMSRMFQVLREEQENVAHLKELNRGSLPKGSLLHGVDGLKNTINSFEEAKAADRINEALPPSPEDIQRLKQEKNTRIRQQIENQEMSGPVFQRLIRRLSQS

[13] = target: T4, Serine/threonine-protein phosphatase; assay: Fluorescence Cell-Based Secondary Assay to Identify Inhibitors of Calcineurin. [Related pubchem assays (depositor defined):AID1979, AID2007]; type: functional
[14] = target: T5, Mannose-6-phosphate isomerase (Homo sapiens, UniProt P34949); assay: MPI inhibition at elevated mannose 6-phosphate – biochemical, fluorescence intensity, high mannose 6-phosphate, primary screen (AID 1220)
T5 sequence (P34949 whole entry): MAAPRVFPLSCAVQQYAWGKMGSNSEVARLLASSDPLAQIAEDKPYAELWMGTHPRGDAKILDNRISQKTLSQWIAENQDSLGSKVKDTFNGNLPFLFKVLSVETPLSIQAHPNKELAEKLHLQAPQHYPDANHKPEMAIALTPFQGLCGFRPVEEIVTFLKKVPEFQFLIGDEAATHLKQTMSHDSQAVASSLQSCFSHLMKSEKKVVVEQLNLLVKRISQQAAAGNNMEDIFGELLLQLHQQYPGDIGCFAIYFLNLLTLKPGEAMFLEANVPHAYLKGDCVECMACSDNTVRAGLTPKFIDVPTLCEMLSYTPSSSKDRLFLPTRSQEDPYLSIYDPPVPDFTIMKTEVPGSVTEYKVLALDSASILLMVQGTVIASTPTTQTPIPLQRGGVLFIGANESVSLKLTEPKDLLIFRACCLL

[15] = target: Glucose-6-phosphate 1-dehydrogenase (Homo sapiens, UniProt P11413); assay: inhibition of Homo sapiens G6PD, dose series – biochemical, fluorescence, selectivity assay for P. falciparum G6PD inhibitor project, dose response (AID 504792); type: functional
[16] = target: 5-hydroxytryptamine receptor 5A (Homo sapiens, UniProt P47898); assay: Counterscreen for agonists of OPRM1-OPRD1 heterodimerization: luminescence-based cell-based high throughput dose response assay to identify agonists of 5-hydroxytryptamine (serotonin) 5A receptor (HTR5A). [Related pubchem assays (depositor defined):AID504326, AID504355, AID504692, AID504904, AID504905]; type: functional
[17] = target: T6, Short transient receptor potential channel 4 (Mus musculus, UniProt Q9QUQ5); assay: calcium entry via TRPC4 opening agents – cell-based, HEK293 TRPC4/mu-opioid, Fluo-4 calcium, dose response (AID 434937); type: functional
T6 sequence (Q9QUQ5 whole entry): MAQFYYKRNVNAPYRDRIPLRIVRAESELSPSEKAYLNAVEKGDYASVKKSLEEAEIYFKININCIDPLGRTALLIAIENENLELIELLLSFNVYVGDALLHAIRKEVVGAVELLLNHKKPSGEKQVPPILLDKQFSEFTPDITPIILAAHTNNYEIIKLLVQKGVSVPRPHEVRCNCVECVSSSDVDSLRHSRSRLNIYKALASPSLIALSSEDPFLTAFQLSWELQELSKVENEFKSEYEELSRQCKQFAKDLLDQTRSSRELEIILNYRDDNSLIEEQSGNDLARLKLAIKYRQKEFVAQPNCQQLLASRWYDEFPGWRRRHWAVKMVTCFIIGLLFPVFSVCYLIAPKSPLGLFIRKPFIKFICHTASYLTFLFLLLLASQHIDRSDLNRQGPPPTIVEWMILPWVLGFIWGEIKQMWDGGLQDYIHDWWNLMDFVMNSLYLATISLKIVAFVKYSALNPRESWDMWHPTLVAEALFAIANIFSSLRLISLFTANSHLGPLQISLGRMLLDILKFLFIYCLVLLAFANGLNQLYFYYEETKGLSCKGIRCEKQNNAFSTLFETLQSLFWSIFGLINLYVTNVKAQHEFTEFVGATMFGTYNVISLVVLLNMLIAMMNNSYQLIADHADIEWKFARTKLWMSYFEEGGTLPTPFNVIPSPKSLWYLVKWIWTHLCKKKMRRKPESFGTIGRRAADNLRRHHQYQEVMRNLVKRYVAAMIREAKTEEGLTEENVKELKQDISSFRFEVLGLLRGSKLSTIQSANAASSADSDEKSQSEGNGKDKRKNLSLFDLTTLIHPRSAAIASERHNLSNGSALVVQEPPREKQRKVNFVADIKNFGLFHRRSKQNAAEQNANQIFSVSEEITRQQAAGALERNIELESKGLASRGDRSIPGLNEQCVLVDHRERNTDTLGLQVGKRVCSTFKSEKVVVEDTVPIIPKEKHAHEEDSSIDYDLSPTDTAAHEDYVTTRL

Mu-type opioid receptor = Mu-type opioid receptor (Homo sapiens, UniProt P35372); assay: (§1) Counterscreen for agonists of heterodimerization of the mu 1 (OPRM1) and delta 1 (OPRD1) opioid receptors: Luminescence-based cell-based high throughput dose response assay to identify agonists of OPRM1 homodimerization.; type: functional
[18] = target: Delta-type opioid receptor (Homo sapiens, UniProt P41143); assay: as §1, with “of OPRD1” for “of OPRM1”, “homodimerization. [Related pubchem assays (depositor defined):AID504326, AID504355, AID504692, AID504904, AID504905]” for “homodimerization.”; type: functional
Sequence of Delta-type opioid receptor (P41143 whole entry): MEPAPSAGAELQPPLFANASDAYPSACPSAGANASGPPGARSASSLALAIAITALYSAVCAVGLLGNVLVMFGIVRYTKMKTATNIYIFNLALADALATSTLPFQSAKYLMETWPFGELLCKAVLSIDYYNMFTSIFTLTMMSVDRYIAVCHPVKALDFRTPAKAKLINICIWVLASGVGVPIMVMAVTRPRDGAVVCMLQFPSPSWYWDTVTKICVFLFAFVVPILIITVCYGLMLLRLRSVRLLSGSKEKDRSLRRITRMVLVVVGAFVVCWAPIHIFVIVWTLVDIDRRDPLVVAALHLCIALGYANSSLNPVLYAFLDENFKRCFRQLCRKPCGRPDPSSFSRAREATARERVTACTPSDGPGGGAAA

Sequence of 5-hydroxytryptamine receptor 5A (P47898 whole entry): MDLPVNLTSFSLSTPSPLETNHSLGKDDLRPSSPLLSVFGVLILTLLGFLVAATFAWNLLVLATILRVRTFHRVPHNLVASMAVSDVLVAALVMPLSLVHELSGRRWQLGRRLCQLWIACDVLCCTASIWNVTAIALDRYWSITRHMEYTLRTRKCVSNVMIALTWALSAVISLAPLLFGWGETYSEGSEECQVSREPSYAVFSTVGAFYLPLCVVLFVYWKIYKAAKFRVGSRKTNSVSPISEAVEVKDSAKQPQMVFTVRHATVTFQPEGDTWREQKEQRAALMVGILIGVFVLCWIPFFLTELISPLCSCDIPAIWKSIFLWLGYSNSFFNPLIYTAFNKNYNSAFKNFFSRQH
Sequence of Mu-type opioid receptor (P35372 whole entry): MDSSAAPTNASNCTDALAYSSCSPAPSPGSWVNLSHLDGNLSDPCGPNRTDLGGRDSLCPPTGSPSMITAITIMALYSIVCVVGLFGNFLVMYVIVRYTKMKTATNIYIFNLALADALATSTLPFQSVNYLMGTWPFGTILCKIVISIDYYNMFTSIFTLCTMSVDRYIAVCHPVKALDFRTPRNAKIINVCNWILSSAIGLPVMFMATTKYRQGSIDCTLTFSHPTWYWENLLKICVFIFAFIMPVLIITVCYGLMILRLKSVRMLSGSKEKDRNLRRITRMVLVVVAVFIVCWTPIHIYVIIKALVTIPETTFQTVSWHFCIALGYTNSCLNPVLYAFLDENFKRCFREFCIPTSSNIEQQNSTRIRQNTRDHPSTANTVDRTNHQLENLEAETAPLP
Sequence of Glucose-6-phosphate 1-dehydrogenase (P11413 whole entry): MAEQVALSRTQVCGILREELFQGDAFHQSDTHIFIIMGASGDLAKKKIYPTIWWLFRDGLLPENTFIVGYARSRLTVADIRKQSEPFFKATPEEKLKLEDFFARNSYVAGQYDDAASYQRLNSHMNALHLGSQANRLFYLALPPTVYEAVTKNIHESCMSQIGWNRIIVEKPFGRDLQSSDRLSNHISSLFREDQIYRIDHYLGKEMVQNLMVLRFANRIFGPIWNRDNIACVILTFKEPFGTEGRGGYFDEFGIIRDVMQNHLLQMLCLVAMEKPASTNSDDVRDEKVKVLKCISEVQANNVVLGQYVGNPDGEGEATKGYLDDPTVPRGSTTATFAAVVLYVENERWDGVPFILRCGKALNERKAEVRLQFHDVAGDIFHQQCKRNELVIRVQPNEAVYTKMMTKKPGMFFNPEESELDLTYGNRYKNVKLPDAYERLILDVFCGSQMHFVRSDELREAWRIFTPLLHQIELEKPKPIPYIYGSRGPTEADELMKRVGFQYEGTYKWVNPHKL
Sequence of Intestinal-type alkaline phosphatase (Homo sapiens, UniProt P09923) (P09923 whole entry): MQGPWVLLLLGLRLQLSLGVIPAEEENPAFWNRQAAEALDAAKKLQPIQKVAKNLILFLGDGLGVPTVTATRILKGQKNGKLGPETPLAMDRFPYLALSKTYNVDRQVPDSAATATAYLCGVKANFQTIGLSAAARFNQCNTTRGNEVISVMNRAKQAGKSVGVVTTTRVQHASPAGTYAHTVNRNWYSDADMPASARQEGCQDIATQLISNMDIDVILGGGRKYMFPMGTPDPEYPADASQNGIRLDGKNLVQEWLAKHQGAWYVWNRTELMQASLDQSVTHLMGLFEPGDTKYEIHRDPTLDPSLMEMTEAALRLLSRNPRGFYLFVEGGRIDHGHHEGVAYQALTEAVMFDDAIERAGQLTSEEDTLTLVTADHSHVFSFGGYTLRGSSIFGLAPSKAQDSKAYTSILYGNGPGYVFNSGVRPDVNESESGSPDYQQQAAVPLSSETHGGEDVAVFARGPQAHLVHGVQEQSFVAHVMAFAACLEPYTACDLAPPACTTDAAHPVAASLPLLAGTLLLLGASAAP
Sequence of Beta-galactosidase (Q8VNN2 whole entry): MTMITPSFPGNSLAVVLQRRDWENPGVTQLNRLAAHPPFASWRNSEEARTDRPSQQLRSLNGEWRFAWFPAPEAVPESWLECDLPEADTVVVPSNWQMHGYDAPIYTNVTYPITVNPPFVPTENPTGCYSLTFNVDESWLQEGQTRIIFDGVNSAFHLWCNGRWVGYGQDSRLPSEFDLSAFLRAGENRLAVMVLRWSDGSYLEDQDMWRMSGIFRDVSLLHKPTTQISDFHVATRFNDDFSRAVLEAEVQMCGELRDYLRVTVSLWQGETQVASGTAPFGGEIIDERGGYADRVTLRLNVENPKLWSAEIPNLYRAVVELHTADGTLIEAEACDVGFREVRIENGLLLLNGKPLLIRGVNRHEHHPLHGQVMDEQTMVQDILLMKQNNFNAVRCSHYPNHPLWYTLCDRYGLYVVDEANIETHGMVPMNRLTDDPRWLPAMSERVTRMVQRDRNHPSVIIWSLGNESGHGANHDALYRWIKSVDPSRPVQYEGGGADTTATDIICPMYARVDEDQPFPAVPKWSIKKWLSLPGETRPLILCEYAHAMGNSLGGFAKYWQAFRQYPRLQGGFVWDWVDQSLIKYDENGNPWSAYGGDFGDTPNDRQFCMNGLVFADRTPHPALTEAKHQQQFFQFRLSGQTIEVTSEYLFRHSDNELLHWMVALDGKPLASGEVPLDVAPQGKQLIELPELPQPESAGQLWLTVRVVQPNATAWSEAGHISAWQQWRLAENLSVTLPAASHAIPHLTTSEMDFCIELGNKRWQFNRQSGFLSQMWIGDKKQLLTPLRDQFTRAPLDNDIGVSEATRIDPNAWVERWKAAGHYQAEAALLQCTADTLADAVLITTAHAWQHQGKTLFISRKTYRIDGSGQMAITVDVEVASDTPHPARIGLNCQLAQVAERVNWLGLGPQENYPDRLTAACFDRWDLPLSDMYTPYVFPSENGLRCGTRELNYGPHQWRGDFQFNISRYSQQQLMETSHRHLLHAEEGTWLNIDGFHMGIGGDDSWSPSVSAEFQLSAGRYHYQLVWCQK
Sequence of ATP-dependent molecular chaperone HSP82 (C4YTQ8 whole entry): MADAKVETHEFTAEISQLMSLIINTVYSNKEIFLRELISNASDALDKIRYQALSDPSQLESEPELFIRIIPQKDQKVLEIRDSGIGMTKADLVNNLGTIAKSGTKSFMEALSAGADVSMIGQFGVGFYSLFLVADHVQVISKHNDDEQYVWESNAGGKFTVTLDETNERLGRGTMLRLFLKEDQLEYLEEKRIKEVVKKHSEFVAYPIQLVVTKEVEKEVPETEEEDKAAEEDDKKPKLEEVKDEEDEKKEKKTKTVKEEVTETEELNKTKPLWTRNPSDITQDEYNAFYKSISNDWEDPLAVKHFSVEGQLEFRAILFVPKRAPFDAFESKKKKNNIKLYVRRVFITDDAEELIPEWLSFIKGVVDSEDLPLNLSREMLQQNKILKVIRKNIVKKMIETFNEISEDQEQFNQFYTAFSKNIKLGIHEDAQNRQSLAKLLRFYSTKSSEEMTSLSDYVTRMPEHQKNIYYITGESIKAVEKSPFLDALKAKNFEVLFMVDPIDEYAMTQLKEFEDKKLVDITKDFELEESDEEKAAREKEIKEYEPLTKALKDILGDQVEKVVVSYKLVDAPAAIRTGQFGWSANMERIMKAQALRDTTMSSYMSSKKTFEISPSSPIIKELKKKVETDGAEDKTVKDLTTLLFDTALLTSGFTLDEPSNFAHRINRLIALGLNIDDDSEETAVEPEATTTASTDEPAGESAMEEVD
Sequence of Genome polyprotein (P29990 2492-3391 limits assumed): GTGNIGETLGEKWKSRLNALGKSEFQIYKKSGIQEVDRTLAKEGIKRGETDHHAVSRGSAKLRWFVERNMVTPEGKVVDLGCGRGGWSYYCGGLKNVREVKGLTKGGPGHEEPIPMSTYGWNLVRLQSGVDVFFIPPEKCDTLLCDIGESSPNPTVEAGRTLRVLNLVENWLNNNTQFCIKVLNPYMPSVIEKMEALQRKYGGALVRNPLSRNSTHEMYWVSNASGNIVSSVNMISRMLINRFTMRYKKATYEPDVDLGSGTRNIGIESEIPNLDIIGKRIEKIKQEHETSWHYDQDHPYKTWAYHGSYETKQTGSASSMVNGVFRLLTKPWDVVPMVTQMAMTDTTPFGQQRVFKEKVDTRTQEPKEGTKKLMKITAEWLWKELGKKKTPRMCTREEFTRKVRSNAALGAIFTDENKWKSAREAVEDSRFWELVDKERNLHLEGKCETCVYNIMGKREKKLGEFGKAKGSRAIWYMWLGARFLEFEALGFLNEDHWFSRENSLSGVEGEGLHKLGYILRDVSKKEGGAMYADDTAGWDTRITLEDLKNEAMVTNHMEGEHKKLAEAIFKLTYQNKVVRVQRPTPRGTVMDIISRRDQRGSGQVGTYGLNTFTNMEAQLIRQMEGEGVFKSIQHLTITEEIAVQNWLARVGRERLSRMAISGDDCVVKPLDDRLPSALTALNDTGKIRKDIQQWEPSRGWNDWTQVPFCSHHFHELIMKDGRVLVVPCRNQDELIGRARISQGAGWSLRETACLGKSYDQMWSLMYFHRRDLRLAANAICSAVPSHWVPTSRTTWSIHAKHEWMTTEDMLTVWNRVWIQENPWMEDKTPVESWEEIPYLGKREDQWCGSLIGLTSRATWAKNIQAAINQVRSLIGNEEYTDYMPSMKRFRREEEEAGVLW

CCN(CC)c1ccc(C(=O)NC(=S)Nc2cc(S(=O)(=O)N3CCOCC3)ccc2-n2cncn2)cc1
EC50 (Beta-galactosidase): > 40 µM (inactive)
IC50 [1]: 9.89 µM (not active)
IC50 [2]: > 40 µM (not active)

O=C1CC(c2ccc(O)c(O)c2)Oc2c1ccc(O)c2O (stereo unspecified)
IC50 [3]: 24.8 µM (active)
IC50 [4]: > 100 µM (inactive)
IC50 [5]: 2.99 µM (active)
IC50 [6]: 14.8 µM (active)
IC50 (Large T antigen): 1.91 µM (active)

Cc1ccc(C(=O)c2coc3c2C(=O)C(=O)c2ccccc2-3)cc1
IC50 [7]: 3.8 µM (active)
EC50 [8]: 1.21 µM (active)
EC50 [9]: 0.983 µM (active)
EC50 (Melanocortin receptor 4): > 89.2 µM (inactive)
EC50 [10]: 27.9 µM (active)
AC50 [11]: 3.84 µM (active)
IC50 (Genome polyprotein): 55 µM (active)
EC50 [12]: 3.78 µM (active)
EC50 [13]: 9.27 µM (active)
IC50 [14]: > 50 µM (not active)

Cc1ccc(/C=C/C(=O)N2CCN(S(=O)(=O)c3ccc(C)c(C)c3)CC2)o1
IC50 [15]: > 80 µM (inactive)

CN(C)C(CN=C(S)Nc1ccccc1Cl)c1cccnc1 (stereo unspecified)
EC50 [16]: > 92.5 µM (inactive)
EC50 [17]: 0.0333 µM (active)
EC50 (Mu-type opioid receptor): 3.64 µM (active)
EC50 [18]: 26.9 µM (inactive)

CCOC(=O)C1(c2ccccc2)CCN(CCC(=O)Nc2ccc(F)cc2)CC1
EC50 [16]: > 92.5 µM (inactive)
EC50 (Mu-type opioid receptor): > 92.5 µM (inactive)
EC50 [18]: > 92.5 µM (inactive)
